Article PMC7845544 (Frontiers in Pharmacology, 2021)
“And” between values parts separate entries of the source, which are not always exact repeats. Identical values can stand only once.

Assays:
[1] = Solubility in PBS; type: physicochemical; conditions: PBS (pH 7.4)
[2] = Dog pharmacokinetics; type: in vivo; conditions: 10 mg/kg
[3] = Monkey pharmacokinetics; type: in vivo; conditions: data not shown
[4] = test system: immature B6C3F1 mice; assay: Superovulation assay in immature mice; type: in vivo, mouse; conditions: 30 and 100 mg/kg, mice receiving low dose rec-hFSH (0.15 IU)
Experimental: Immature SD rats and B6C3F1 mice (both 18–21 day old females) were purchased from Charles-River laboratories (Wilmington, MA, United States and Shanghai, China). All animals were treated in accordance to Chempartner (Shanghai, China) or Embryotech (Haverhill, MA, United States) IACUC approved animal protocols. The animals were provided water and food ad libitum and housed under 12 h dark and 12 h light schedules.
Immature rats and mice were used to investigate the ability of the small molecules to induce follicular development and support ovulation as described elsewhere ([Steelman and Pohley, 1953]) with modifications ([Sriraman et al., 2014]). […] […] The isolated COC’s were treated with hyaluronidase and the total number of ovulated oocytes was determined microscopically.
[…] […] In some experiments, serum was collected from the animals prior to the ovulatory dose of hCG to determine estradiol levels. Plasma concentrations of FSHR-AA were measured during superovulation assays, except for experiments where plasma was collected for estradiol measurements.

[5] = test system: beagle dogs; assay: 14-day toxicity and toxicokinetics in Beagle dog; type: in vivo
Experimental: (§1) Male and female beagle dogs were received from Beijing Marshall Biotechnology Co., Ltd (Beijing, China) and group housed at Covance (Shanghai, China), except for 5 h each day in stainless steel cages for study-related procedures. […] Blood samples (approximately 1.0 ml) were collected for thyroid hormone analysis on Days 0, prior to dosing, 24 h post dose (prior to second dose on Day 2) and once prior to dosing on Day 14. Blood was collected into serum separator tubes (without anticoagulant), allowed to clot at room temperature, and centrifuged for approximately 10 min in a refrigerated centrifuge at approximately at 3,500 g within 2 h of collection. Serum was harvested and placed in a freezer for subsequent thyroid hormone measurement.

[6] = test system: beagle dogs; assay: Serum thyroid hormones in beagle dogs treated for 14 days; type: in vivo
Experimental: as §1

[7] = test system: Adenosine A3 receptor; conditions: dose response
[8] = test system: NK2 receptor; conditions: dose response
[9] = test system: Cl-channel (GABA-gated); conditions: dose response
[10] = female dog, 30 mg/Kg, 0h predosing
[11] = female dog, 100 mg/Kg, 0h predosing
[12] = female dog, 1000 mg/Kg, 0h predosing
[13] = male dog, 30 mg/Kg, 0h predosing
[14] = male dog, 100 mg/Kg, 0h predosing
[15] = male dog, 1000 mg/Kg, 0h predosing

## COc1cc(C(N)=O)cc(-c2cc3c(cc2OC)OCc2c(C(=O)N(C)C(C)(C)C)nn(-c4cc(Cl)cc(Cl)c4)c2-3)n1 [TOP5668]
[1]
  fold more soluble than TOP5300: 14 fold

## COc1cc2c(cc1-c1cnn(CCO)c1)-c1c(c(C(=O)N(C)C(C)(C)C)nn1-c1cc(Cl)cc(Cl)c1)CO2 [TOP5300]
[2]
  Dog PK AUC: 8,719 ng*h/ml
  Dog PK T1/2: 9 h and 9.4 h
[2]; oral bioavailability
  Dog PK F%: 32%
[3]
  half-life, monkey PK: 12.1 h
[4]
  follicular growth and ovulation: dose-dependent increases in follicular growth and ovulation
[5]; 14 days, up to 1,000 mg/kg
  mortality or morbidity, dog: no mortality or morbidity occurred
[5]; dog, in vivo, po
  NOAEL, dog: 1,000 mg/kg/day
[6]; dog, 14 days
  TSH, free T3 or free T4 concentrations over the course of treatment: No significant difference
[6]; [10]
  Free T3, fold change over vehicle group: 0.9 fold
  Free T4, fold change over vehicle group: 1.1 fold
  TSH, fold change over vehicle group: 1.2 fold
[6]; female dog, 30 mg/Kg, 24h
  Free T3, fold change over vehicle group: 0.8 fold
  Free T4, fold change over vehicle group: 1.1 fold
  TSH, fold change over vehicle group: 0.9 fold
[6]; female dog, 30 mg/Kg, Day 14
  Free T3, fold change over vehicle group: 1.0 fold
  Free T4, fold change over vehicle group: 0.8 fold
  TSH, fold change over vehicle group: 1.1 fold
[6]; [11]
  Free T3, fold change over vehicle group: 1.0 fold
  Free T4, fold change over vehicle group: 1.2 fold
  TSH, fold change over vehicle group: 1.3 fold
[6]; female dog, 100 mg/Kg, 24h
  Free T3, fold change over vehicle group: 0.9 fold
  Free T4, fold change over vehicle group: 1.1 fold
  TSH, fold change over vehicle group: 1.0 fold
[6]; female dog, 100 mg/Kg, Day 14
  Free T3, fold change over vehicle group: 1.1 fold
  Free T4, fold change over vehicle group: 1.1 fold
  TSH, fold change over vehicle group: 1.1 fold
[6]; [12]
  Free T3, fold change over vehicle group: 1.1 fold
  Free T4, fold change over vehicle group: 1.0 fold
  TSH, fold change over vehicle group: 1.2 fold
[6]; female dog, 1000 mg/Kg, 24h
  Free T3, fold change over vehicle group: 0.9 fold
  Free T4, fold change over vehicle group: 0.9 fold
  TSH, fold change over vehicle group: 0.8 fold
[6]; female dog, 1000 mg/Kg, Day 14
  Free T3, fold change over vehicle group: 1.2 fold
  Free T4, fold change over vehicle group: 0.9 fold
  TSH, fold change over vehicle group: 0.8 fold
[6]; [13]
  Free T3, fold change over vehicle group: 1.3 fold
  Free T4, fold change over vehicle group: 1.0 fold
  TSH, fold change over vehicle group: 0.8 fold
[6]; male dog, 30 mg/Kg, 24h
  Free T3, fold change over vehicle group: 1.3 fold
  Free T4, fold change over vehicle group: 1.0 fold
  TSH, fold change over vehicle group: 0.9 fold
[6]; male dog, 30 mg/Kg, Day 14
  Free T3, fold change over vehicle group: 1.3 fold
  Free T4, fold change over vehicle group: 1.0 fold
  TSH, fold change over vehicle group: 1.0 fold
[6]; [14]
  Free T3, fold change over vehicle group: 1.1 fold
  Free T4, fold change over vehicle group: 0.9 fold
  TSH, fold change over vehicle group: 0.8 fold
[6]; male dog, 100 mg/Kg, 24h
  Free T3, fold change over vehicle group: 1.1 fold
  Free T4, fold change over vehicle group: 0.8 fold
  TSH, fold change over vehicle group: 0.9 fold
[6]; male dog, 100 mg/Kg, Day 14
  Free T3, fold change over vehicle group: 1.1 fold
  Free T4, fold change over vehicle group: 0.9 fold
  TSH, fold change over vehicle group: 1.0 fold
[6]; [15]
  Free T3, fold change over vehicle group: 1.0 fold
  Free T4, fold change over vehicle group: 0.9 fold
  TSH, fold change over vehicle group: 0.7 fold
[6]; male dog, 1000 mg/Kg, 24h
  Free T3, fold change over vehicle group: 0.9 fold
  Free T4, fold change over vehicle group: 0.9 fold
  TSH, fold change over vehicle group: 0.9 fold
[6]; male dog, 1000 mg/Kg, Day 14
  Free T3, fold change over vehicle group: 1.0 fold
  Free T4, fold change over vehicle group: 1.0 fold
  TSH, fold change over vehicle group: 0.8 fold
[7]
  selectivity / safety margin compared to FSHR, A3(h): over 400 fold
[8]
  selectivity / safety margin compared to FSHR, NK2(h): over 400 fold
[9]
  selectivity / safety margin compared to FSHR, Cl-channel (GABA-gated): over 400 fold
